In general, EC50 refers to the concentration that produces a half-maximal response. Higher therefore signals a need for much substance.

From US20230287027A1, “ADJUVANT WITH TLR4 AGONIST ACTIVITY” (Sumitomo Pharma Co., Ltd, priority 2020, published 2023) come the findings set out here.

The subject of assay [1] is spleen cell of the mouse. The assay is described as follows: Test 4: T cell populations in spleen cells of immunized mice by flow cytometry. Type of assay: in vivo. The note with it: intramuscular with OVA, liposome formulation, compared with the negative control group. As to the method:
The equal mixture prepared in Test 3 of ovalbumin (OVA) (2 mg/mL) and the formulation prepared in Example 6, Example 7, or Reference example 16 (containing 0.2 or 2 mg/mL the compound of Example 1, Example 2, or Reference example 9) was administered to a mouse (100 μL/mouse). The spleen cell of the mouse was prepared, OVA and Brefeldin A (eBioscience) were added the cell, and the cell was cultured overnight. The collected cell was stained with APC-labeled antimouse CD3e antibody (Invitrogen), PerCP-labeled antimouse CD4 antibody (BioLegend), and Fixable Viability Dye eFluor™ 520 (invitorgen), and fixed with Fixation/Permeabilization buffer (Invitrogen). The cell was treated with Permeabilization buffer (Invitrogen), and then stained with antibody cocktail BV421-labeled anti-IFN-γ antibody (BioLegend), PE-Cy7-labeled anti-IL-2 antibody (eBioscience), and PE-labeled TNF-α (BioLegend). The data were taken and analyzed with FACS Cant II (BD Biosciences) and FLOWJO software (TreeStar).
Separately, the spleen cell was stained with V450-labled antimouse CD3e antibody (invitrogen), Alexa Fluor™ 647-labeled antimouse CD8 antibody (MBL), PE-labeled H-2Kb OVA Tetramer-SIINFEKL (MBL), and Fixable Viability dye eFluor 520 (invitrogen). The data were taken and analyzed with FACS Cant II (BD Biosciences) and FLOWJO software (TreeStar).
Further separately, the spleen cell was stained with V450-labeled antimouse CD3e antibody (invitrogen), Alexa Fluor™ 647-labeled antimouse CD8 antibody (MBL), PE-Cy7-labeled antimouse CD44 antibody (Invitrogen), PerCP-Cy5.5-labeled antimouse CD62L antibody (Invitrogen), and Fixable Viability dye eFluor 520 (Invitrogen). The data were taken and analyzed with FACS Cant II (BD Biosciences) and FLOWJO software (TreeStar).
A general note: Flow cytometry measures light scatter and fluorescence of single cells or particles in a stream.

Assay [2] has as its target T1, human TLR4 (Homo sapiens, UniProt O00206+Q9Y6Y9).
T1 construct: host or cells: HEK-Blue hTLR4 cell line
The assay can be described thus: Human TLR4 reporter gene assay (Test 1). Type of assay: cell-based. The following applies: HEK-Blue hTLR4 cell line, SEAP reporter, 37° C. 16-20 hours, 0.1% DMSO; concentration giving half of maximal SEAP level induced with LPS. From the text:
Human TLR4 Reporter Gene Assay
HEK-Blue™ hTLR4 cell line (Invivogen Corporation) is a stably co-transfected cell line which expresses human TLR4, MD2, CD14, and secretory alkaline phosphatase (SEAP) reporter gene under the transcriptional regulation of an NF-κB response element. The TLR4 expression of the cell line has been already tested by RT-PCR, flow cytometry. Transfectants with stable expression were selected using the antibiotic HEK-Blue™ Selection. TLR signaling leads to the translocation of NF-κB and the activation of the promoter results in expression of the SEAP gene. TLR4-specific activation was assessed by determining the level of SEAP produced following incubation of the cells at 37° C. for 16-20 hours with each compound prepared in Examples and Reference examples in the presence of 0.1% (v/v) DMSO. The human TLR4 activity for the present compound was assessed by human TLR4 reporter gene assay, and the concentration of the compound concentration which produced half of the maximal level of SEAP induced with lipopolysaccharide (LPS) was determined as EC50.

T1 sequence (O00206 24-839): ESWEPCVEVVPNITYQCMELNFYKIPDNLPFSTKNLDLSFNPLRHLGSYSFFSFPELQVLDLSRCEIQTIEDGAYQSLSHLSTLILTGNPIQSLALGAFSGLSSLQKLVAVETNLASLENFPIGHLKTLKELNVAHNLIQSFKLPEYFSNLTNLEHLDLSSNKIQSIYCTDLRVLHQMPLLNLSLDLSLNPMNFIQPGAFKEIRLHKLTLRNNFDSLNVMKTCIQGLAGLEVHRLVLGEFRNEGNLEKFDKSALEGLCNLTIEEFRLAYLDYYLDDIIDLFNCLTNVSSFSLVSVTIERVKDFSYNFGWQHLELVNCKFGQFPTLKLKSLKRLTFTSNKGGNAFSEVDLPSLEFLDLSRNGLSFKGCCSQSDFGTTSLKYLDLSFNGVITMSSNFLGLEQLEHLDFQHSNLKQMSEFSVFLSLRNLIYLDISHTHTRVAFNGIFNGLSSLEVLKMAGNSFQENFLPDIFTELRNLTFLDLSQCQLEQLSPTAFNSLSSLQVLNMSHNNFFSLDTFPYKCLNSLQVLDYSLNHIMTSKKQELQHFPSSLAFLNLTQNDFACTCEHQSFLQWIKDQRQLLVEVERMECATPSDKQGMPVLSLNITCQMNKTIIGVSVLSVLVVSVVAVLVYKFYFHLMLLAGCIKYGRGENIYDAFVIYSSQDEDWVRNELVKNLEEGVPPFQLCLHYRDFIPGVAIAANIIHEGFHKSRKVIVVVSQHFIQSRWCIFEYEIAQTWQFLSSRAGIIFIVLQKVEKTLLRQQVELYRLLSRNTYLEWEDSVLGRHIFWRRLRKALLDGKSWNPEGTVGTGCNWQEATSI
T1 sequence (Q9Y6Y9 17-160 limits assumed): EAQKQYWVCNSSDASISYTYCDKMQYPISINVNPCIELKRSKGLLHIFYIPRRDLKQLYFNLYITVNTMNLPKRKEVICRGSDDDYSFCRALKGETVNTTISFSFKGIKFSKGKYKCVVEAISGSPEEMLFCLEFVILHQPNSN

Take `CCCCCCCCCCC[C@H](CC(=O)NC1C(OC[C@@H](NC(=O)C[C@@H](CCCCCCCCCCC)OC(=O)CCCCCCCCC)C(=O)O)OC(CO)C(OP(=O)(O)O)C1OC(=O)C[C@@H](CCCCCCCCCCC)OC(=O)CCCCCCCCc1ccccc1)OC(=O)CCCCCCCCC` (stereo partly drawn) [Reference example 9, (2R)-2-{[(3R)-3-(Decanoyloxy)tetradecanoyl]amino}-3-{[3-{[(3R)-3-(decanoyloxy)tetradecanoyl]amino}-6-(hydroxymethyl)-4-({(3R)-3-[(9-phenylnonanoyl)oxy]tetradecanoyl}oxy)-5-(phosphonooxy)oxan-2-yl]oxy}propanoic acid, reference compound]: in assay [1], the “percentage of CD8-positive effector memory T-lymphocyte” value was “significantly increased”, the “percentage of MHC-restricted OVA-specific CD8-positive T-lymphocyte (OVA tetramer-positive CD8T cell)” value (shortened to “percentage … (OVA tetramer-positive CD8T cell)”) was “significantly increased” and the “percentage of OVA-specific type 1 helper T-cell” value is “significantly increased”. Further, the EC50 in assay [2] is 43.9 nM.

On to `CCCCCCCCCCC[C@H](CC(=O)NC1C(OC[C@H](NC(=O)C[C@@H](CCCCCCCCCCC)OC(=O)CCCCCCCCC)C(=O)O)OC(CO)C(O)C1OC(=O)C[C@@H](CCCCCCCCCCC)OC(=O)CCCCCCCCc1ccccc1)OC(=O)CCCCCCCCC` (stereo partly drawn) [Example 2, (2S)-2-{[(3R)-3-(decanoyloxy)tetradecanoyl]amino}-3-{[3-{[(3R)-3-(decanoyloxy)tetradecanoyl]amino}-5-hydroxy-6-(hydroxymethyl)-4-({(3R)-3-[(9-phenylnonanoyl)oxy]tetradecanoyl}oxy)oxan-2-yl]oxy}propanoic acid], for which, in assay [1], the “percentage of CD8-positive effector memory T-lymphocyte” value is “significantly increased”, the “percentage … (OVA tetramer-positive CD8T cell)” value was “significantly increased” and the “percentage of OVA-specific type 1 helper T-cell” value is “significantly increased”. For the same molecule, the half-maximal effective concentration (EC50) in assay [2] was 15 nM.

With `CCCCCCCCCCC[C@H](CC(=O)NC1C(OC[C@@H](NC(=O)C[C@@H](CCCCCCCCCCC)OC(=O)CCCCCCCCC)C(=O)O)OC(CO)C(O)C1OC(=O)C[C@@H](CCCCCCCCCCC)OC(=O)CCCCCCCCc1ccccc1)OC(=O)CCCCCCCCC` (stereo partly drawn) [Example 1, (2R)-2-{[(3R)-3-(Decanoyloxy)tetradecanoyl]amino}-3-{[3-{[(3R)-3-(decanoyloxy)tetradecanoyl]amino}-5-hydroxy-6-(hydroxymethyl)-4-({(3R)-3-[(9-phenylnonanoyl)oxy]tetradecanoyl}oxy)oxan-2-yl]oxy}propanoic acid], in assay [1], the “percentage of CD8-positive effector memory T-lymphocyte” value is on record as “significantly increased”, the “percentage … (OVA tetramer-positive CD8T cell)” value is “significantly increased” and the “percentage of OVA-specific type 1 helper T-cell” value is “significantly increased”. In assay [2], the EC50 was 43.5 nM.
